Peptide text beside a SMILES is read from it.
Tests used:
[1] = target: Angiotensin I converting enzyme (ACE) (Homo sapiens, UniProt P12821); experiment: Angiotensin I converting enzyme (ACE) inhibitory activity, method of Cushman and Cheung; type: biochemical; conditions: Hip-His-Leu substrate, pH 8.3, 37° C., 30 min
Procedure: A prescribed amount of sample was added to a solution composed of 1-10 mU ACE, 2.5 mM Hip-His-Leu substrate (produced by Peptide Research Institute), 100 mM potassium-phosphate buffer (pH 8.3), and 300 mM NaCl. 0.25 ml of this mixture was incubated at 37° C. for 30 min, and the enzymatic reaction was stopped by adding 0.25 ml of 1N HCl. 1.5 ml of ethylacetate was then added and the mixture was vigorously shaken for 10 second, following which the hippuric acid produced was extracted. […] A blank (ODsbl) was made by adding 1N HCl prior to incubation, and the difference in absorbance, ODs-ODsbl, was determined. […] ACE inhibitory activity was calculated using the following equation: [formula]

[2] = tested on: ICR mice; experiment: Intravenous LD50 in ICR mice; type: in vivo; conditions: in physiological saline, 6 week old male and female ICR mice, 2 week observation
Procedure: (§1) The peptide of formula (I) prepared in Example 2 was dissolved in physiological saline.
(§2) Various concentrations of the peptide in physiological saline were intravenously administered to test animal groups each consisting of 6 week old male (10/group) or female (10/group) ICR mice, or 6 week old male (10/group) or female (10/group) Wistar rats. The LD50 value was determined after a 2 week observation period.

[3] = tested on: Wistar rats; experiment: Intravenous LD50 in Wistar rats; type: in vivo; conditions: in physiological saline, 6 week old male and female Wistar rats, 2 week observation
Procedure: as §1, §2

Angiotensin I converting enzyme (ACE), sequence (P12821 30-1306, species assumed): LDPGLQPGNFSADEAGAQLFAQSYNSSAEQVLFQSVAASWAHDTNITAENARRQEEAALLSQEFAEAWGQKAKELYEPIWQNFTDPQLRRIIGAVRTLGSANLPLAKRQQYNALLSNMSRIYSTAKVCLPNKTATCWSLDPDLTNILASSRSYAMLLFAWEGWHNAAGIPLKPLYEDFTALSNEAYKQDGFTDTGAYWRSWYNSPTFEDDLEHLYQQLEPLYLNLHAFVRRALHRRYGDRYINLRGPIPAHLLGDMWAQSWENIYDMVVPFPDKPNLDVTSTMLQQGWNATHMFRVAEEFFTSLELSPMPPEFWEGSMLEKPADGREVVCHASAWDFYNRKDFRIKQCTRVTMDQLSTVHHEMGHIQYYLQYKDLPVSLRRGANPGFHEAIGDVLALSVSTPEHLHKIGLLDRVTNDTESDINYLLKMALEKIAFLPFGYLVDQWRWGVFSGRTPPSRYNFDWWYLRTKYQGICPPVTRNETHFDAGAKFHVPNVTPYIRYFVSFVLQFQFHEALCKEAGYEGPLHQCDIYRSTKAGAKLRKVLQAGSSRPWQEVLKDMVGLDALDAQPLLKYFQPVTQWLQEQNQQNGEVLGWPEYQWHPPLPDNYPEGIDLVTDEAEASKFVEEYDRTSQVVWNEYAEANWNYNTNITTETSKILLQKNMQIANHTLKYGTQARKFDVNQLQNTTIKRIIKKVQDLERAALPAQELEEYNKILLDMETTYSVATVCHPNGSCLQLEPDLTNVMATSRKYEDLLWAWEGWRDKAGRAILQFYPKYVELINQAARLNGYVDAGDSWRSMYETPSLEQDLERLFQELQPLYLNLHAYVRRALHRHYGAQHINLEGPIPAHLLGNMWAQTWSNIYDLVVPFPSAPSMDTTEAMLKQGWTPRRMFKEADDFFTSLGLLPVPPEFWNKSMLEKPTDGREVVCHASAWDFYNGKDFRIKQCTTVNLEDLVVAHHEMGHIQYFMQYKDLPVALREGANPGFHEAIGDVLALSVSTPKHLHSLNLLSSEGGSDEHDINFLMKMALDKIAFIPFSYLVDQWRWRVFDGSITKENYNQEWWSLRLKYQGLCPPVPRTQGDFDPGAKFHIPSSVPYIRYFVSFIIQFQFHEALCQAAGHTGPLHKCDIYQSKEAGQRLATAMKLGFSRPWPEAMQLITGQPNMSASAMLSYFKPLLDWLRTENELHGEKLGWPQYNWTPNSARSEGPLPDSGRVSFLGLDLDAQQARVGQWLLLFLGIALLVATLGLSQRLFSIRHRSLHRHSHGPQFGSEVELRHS

Compound	IC50 ([1]; sample origin: Fish) [nM]	IC50 ([1]; sample origin: Peptide Synthesis) [nM]	LD50 [2]	LD50 [3]	IC50 ([1]; comparison samples of Table 1) [nM]
CC[C@H](C)[C@H](NC(=O)[C@H](Cc1c[nH]cn1)NC(=O)[C@@H](NC(=O)[C@@H]1CCCN1)[C@@H](C)O)C(=O)N[C@@H](CCCCN)C(=O)N[C@@H](Cc1c[nH]c2ccccc12)C(=O)NCC(=O)N[C@@H](CC(=O)O)C(=O)O [Peptide (I), Pro-Thr-His-Ile-Lys-Trp-Gly-Asp] (H-PTHIKWGD-OH)	700	600	greater than 10 mg/kg	greater than 10 mg/kg	–
CC(C)C[C@H](NC(=O)[C@@H](NC(=O)[C@@H](N)CC(C)C)C(C)C)C(=O)O [Tripeptide, Leu-Val-Leu, reference compound] (H-Leu-Val-Leu-OH)	–	–	–	–	1700

Source: patent publication US5071955A, “Octopeptide exhibiting antimypertensive activity” (Nippon Suisan Kaisha, Ltd., priority 1988, dated 1991)
